Measurements reported in PMC8589628, “Characterization and Antimicrobial Studies of Iturin-Like and Bogorol-Like Lipopeptides From Brevibacillus spp. Strains GI9 and SKDU10” (Frontiers in Microbiology, 2021).
Peptide text beside a SMILES is read from it. * marks the point of attachment. X1 = CC(C)CCCCCCCCCCCCC(=O)*

Experiments:
Lipase = assay: Effect of hydrolytic enzymes on activity (well-diffusion assay); type: in vitro ADME; details: 6h/ 37 °C
Chymotrypsin = assay: as above; type: in vitro ADME; details: 6h/ 37 °C
Protocol: (§1) Sensitivities of purified antimicrobial compounds to temperature, pH, and hydrolytic enzymes were confirmed by performing well-diffusion assay. pH stability was determined by adjusting the pH of aliquots of purified antimicrobial compounds from 2.0 to 12.0 (using 10 mM HCl or NaOH) and incubating at room temperature for 4 h. The residual activity was measured after neutralizing the sample to pH 7.0. To determine temperature susceptibility, antimicrobial compounds were incubated at different temperatures ranging from 37 to 100°C for 1 h and 121°C for 15 min, and then residual antimicrobial activity was determined after cooling the samples to room temperature. Similarly, proteolytic enzymes such as trypsin and proteinase K were used at three different concentrations (0.1, 1.0, and 5.0 mg/ml) to ensure their effect on the activity of antimicrobial compounds. The enzyme solutions were prepared in 50 mM phosphate buffer (pH 7.0). All reactions were performed at 37°C for 6 h followed by deactivation of the enzyme by heating the solution in boiling water for 5 min before performing the activity assay.

Proteinase K = Proteinase K (Parengyodontium album, UniProt P06873); assay: as above; type: in vitro ADME; details: for Tolerance to proteinase K treatment: 37°C, 6 h; for Residual activity: Proteinase K, 6h/ 37 °C, 50 mM phosphate buffer (pH 7.0), enzyme 0.1, 1.0 and 5.0 mg/ml used, well-diffusion assay
Protocol: as §1

Trypsin = assay: as above; type: in vitro ADME; details: for Tolerance to trypsin treatment: 37°C, 6 h; for Residual activity: Trypsin, 6h/ 37 °C, 50 mM phosphate buffer (pH 7.0), enzyme 0.1, 1.0 and 5.0 mg/ml used, well-diffusion assay
Protocol: as §1

[1] = Critical micelle concentration by tensiometer; type: physicochemical; details: surface tension by tensiometer at room temperature, 0.1 to 1000 μg/ml, mean of triplicate experiments
Protocol: Collapse Drop Assay (CDA) was performed as mentioned earlier ([Sharma et al., 2020]). To a well of 96 well microtiter plate, 2 μl mineral oil was added and equilibrated at 37°C for 24 h. Purified lipopeptide (5 μl of 10 μg/ml stock) was applied to the top of oil droplet and its shape was observed after 1 min with a magnifying glass for collapse and spread due to reduction in surface tension. Water and triton X-100 served as controls ([Youssef et al., 2004]). To determine critical micelle concentration (CMC), different concentrations of purified lipopeptides were prepared and surface tension was measured on a tensiometer (KRUSS K10T, Germany) at room temperature. The values for CMC were estimated by plotting surface tension as a function of concentration of lipopeptides. A point of intersection was located between the pre and post CMC data plot. The mean value of triplicate experiments was used to increase the accuracy. Concentrations ranging from 0.1 to 1000 μg/ml were used to determine surface tension on a tensiometer.

V. cholerae MTCC 3904 = assay: Time kill assay; type: cell-based; details: in PBS, CFU count
Protocol: (§2) Killing kinetics of purified compounds was performed using cells of S. aureus MTCC 1430, V. cholerae MTCC 3904, and C. albicans MTCC 183. Test strains were grown to obtain OD between 0.2 and 0.3 (OD 600 nm), centrifuged, and washed thrice with sterile PBS. Pellets were suspended in PBS and treated with different concentrations of active compounds. Cells after treatment were washed, resuspended, and serially diluted cell suspensions were plated on NA plates. After overnight incubation at 37°C, CFU were recorded ([Singh et al., 2021]).

S. aureus MTCC 1430 [2] = assay: TEM of treated cells; type: cell-based, Staphylococcus aureus; details: S. aureus MTCC 1430, 1X MIC, 30 min, 37°C
Protocol: Effect of antimicrobial compounds on cell membrane of test organisms was determined by transmission electron microscopy (TEM). Test strains, S. aureus MTCC 1430, V. cholerae MTCC 3904, and C. albicans MTCC 183 were cultured to mid-log phase, washed, and re-suspended in 1X PBS (OD 600 nm 0.2). The cell suspensions were incubated (37°C) with 1X MIC of purified antimicrobial compounds for 30 min. Cells after treatment were centrifuged, washed twice with PBS. For TEM, cells of S. aureus MTCC 1430 and V. cholerae MTCC 3904 were subjected to negative stain with 0.1% (w/v) sodium phosphotungstate (PTA, Sigma, United States) in water for 1 min, on a carbon-coated copper grid with 300 mesh (Polyscience, United States) and observed under transmission electron microscope (JEOL JEM 2100, United States) ([Raje et al., 2006]). For SEM, C. albicans MTCC 183 cells were immobilized on poly L-lysine glazed glass slides and incubated at 4°C for 2 h. Cells were fixed using Karnovsky’s fixative and serially dehydrated with gradient of ethanol, freeze dried, and platinum coated. ZEISS EV040 (United States) scanning electron microscope was employed to photograph the cells ([Raje et al., 2006]). Spores of A. brassicicola MTCC 2102 were treated with 2X MIC of lipopeptides for 2 h and observed under phase-contrast microscope (Nickon H600L, Japan). […]

S. aureus MTCC 1430 [3] = assay: Time kill assay; type: cell-based, Staphylococcus aureus; details: in PBS, CFU count
Protocol: as §2

[4] = Effect of temperature and pH on activity (well-diffusion assay); type: physicochemical
Protocol: as §1

[5] = Temperature 37 °C, 1h (pH 7.0), well-diffusion assay
[6] = Temperature 60 °C, 1h (pH 7.0), well-diffusion assay
[7] = Temperature 80 °C, 1h (pH 7.0), well-diffusion assay
[8] = Temperature 100 °C, 1h (pH 7.0), well-diffusion assay
[9] = Temperature 121 °C, 15 min (304 kPa) (pH 7.0), well-diffusion assay
[10] = pH 2.0, 4h/ 25 °C, neutralised to pH 7.0 before well-diffusion assay
[11] = pH 4.0, 4h/ 25 °C, neutralised to pH 7.0 before well-diffusion assay
[12] = pH 6.0, 4h/ 25 °C, neutralised to pH 7.0 before well-diffusion assay
[13] = pH 7.0, 4h/ 25 °C, well-diffusion assay
[14] = pH 8.0, 4h/ 25°C, neutralised to pH 7.0 before well-diffusion assay
[15] = pH 10.0, 4h/ 25 °C, neutralised to pH 7.0 before well-diffusion assay
[16] = pH 12.0, 4h/ 25 °C, neutralised to pH 7.0 before well-diffusion assay

Sequence of Proteinase K (P06873 106-384): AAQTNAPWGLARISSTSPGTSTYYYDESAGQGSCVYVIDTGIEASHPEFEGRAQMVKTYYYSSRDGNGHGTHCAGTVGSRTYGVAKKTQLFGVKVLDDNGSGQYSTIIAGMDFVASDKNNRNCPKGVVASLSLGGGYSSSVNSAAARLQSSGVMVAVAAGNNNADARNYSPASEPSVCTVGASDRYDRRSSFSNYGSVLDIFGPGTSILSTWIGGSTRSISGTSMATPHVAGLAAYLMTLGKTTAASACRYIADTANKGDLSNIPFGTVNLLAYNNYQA

| Molecule | Residual activity (Lipase) [%] | Residual activity (Chymotrypsin) [%] | Tolerance to proteinase K treatment (Proteinase K) | Residual activity (Proteinase K) [%] | Tolerance to trypsin treatment (Trypsin) | Residual activity (Trypsin) [%] | CMC (critical micelle concentration) [1] [µg/mL] | Time to complete reduction in the load (V. cholerae MTCC 3904; V. cholerae MTCC 3904, 1X MIC) [min] | Time to complete reduction in the load (V. cholerae MTCC 3904; V. cholerae MTCC 3904, 2X MIC) [min] | Effect on cells (TEM) (S. aureus MTCC 1430 [2]) | Time to complete reduction in population (S. aureus MTCC 1430 [3]; S. aureus MTCC 1430, 1X MIC) [min] | Time to complete reduction in population (S. aureus MTCC 1430 [3]; S. aureus MTCC 1430, 2X MIC) [min] | Residual activity [4, 5] [%] | Residual activity [4, 6] [%] | Residual activity [4, 7] [%] | Residual activity [4, 8] [%] | Residual activity [4, 9] [%] | Residual activity [4, 10] [%] | Residual activity [4, 11] [%] | Residual activity [4, 12] [%] | further results |
| --- | --- | --- | --- | --- | --- | --- | --- | --- | --- | --- | --- | --- | --- | --- | --- | --- | --- | --- | --- | --- | --- |
| Dhb-Tyr-Orn-Ile-Val-Val-Lys-Val-Leu-Asp-Val-Glu [BLL, bogorol like lipopeptide purified from Brevibacillus sp. strain SKDU10; 12 amino acids and C17 hydroxy fatty acid side chain] | 100 | 94.4 | resistant | 77.7 | resistant | 91.6 | 110 | ≤ 30 | ≤ 30 | irregularities in structure with rupturing of cell wall and lysis | ≤ 30 | ≤ 30 | 100 | 100 | 100 | 100 | 100 | 52 | 100 | 100 | Thermostability (activity after exposure to 121°C for 15 min, autoclaving) [4]: thermostable; Residual activity [4, 13]: 100%; Residual activity [4, 14]: 100%; Residual activity [4, 15]: 94.3%; Residual activity [4, 16]: Nil |
| CC(C)CCCCCCCCCCCCC(=O)N[C@H](C(=O)NCC(=O)N[C@@H](C)C(=O)N[C@@H](CO)C(=O)N[C@@H](Cc1c[nH]cn1)C(=O)N[C@@H](CCC(N)=O)C(=O)N[C@@H](CCC(N)=O)C(=O)O)[C@@H](C)O [ILL] (X1-TGASHQQ-OH; N-terminus assumed) | 100 | 91.1 | resistant | 82.3 | resistant | 94.1 | 90 | ≤ 60 | ≤ 60 | lysis with accumulation of debris on cell surface, altered morphology, and shrinkage | ≤ 60 | ≤ 30 | 100 | 100 | 100 | 100 | 100 | 43 | 95.5 | 100 | Residual activity [4, 13]: 100%; Residual activity [4, 14]: 100%; Residual activity [4, 15]: 100%; Residual activity [4, 16]: Nil |
